Laboratory results from patent US20210121380A1, “Amino Acid Containing Oral Care Composition for Treating Caries By Reducing Lactic Acid Release in Oral Biofilms” (3M INNOVATIVE PROPERTIES COMPANY, priority 2018, published 2021).

Columns and labels:
[1] = test system: human saliva derived microcosm biofilm; experiment: Lactic acid release of biofilm grown in MCM human derived saliva biofilm system (LDH-NAD-PMS-MTT enzyme assay); type: cell-based, lactic acid producing bacteria (human derived saliva); conditions: for effectiveness for reducing the lactic-acid release of bacteria in a biofilm (in words): reduction by more than 40% vs control considered effective; for activity at 2.7 %: amino acid 2.7 wt. %
Protocol: (§1) A composition was prepared by dissolving the amino acid to be tested in de-ionized water in the given amount.
(§2) Biofilms were grown in a MCM (mucine containing medium plus 1% sucrose) human derived saliva biofilm system.
(§3) A general procedure is summarized below: • 1. Four-hour incubation of bovine sample disks with saliva-mcm (mucine containing medium plus 1% sucrose) at 37° C. • 2. Fresh medium (MCM with different amino acids) for 2-hour incubation at 37° C. • 3. Fresh medium (MCM with different amino acids) for storage over night at 37° C. • 4. Second Day: Fresh medium (MCM with different amino acids) after 22 and 24 hours. • 5. Samples were taken after 26 hours biofilm growth for measurements of lactic acid release and biomass evaluation.
To determine the activity of the grown biofilm, the production of lactic acid in the supernatant (0.75 ml PBS-solution with 5% sucrose per each sample disc) is measured by using the Lactic acid dehydrogenase (LDH)—Nicotinamid-adenin-dinukleotid (NAD)—Phenazine Methosulphate (PMS)—Thiazolyl blue tetrazolium bromide (MTT)—enzyme assay. To guarantee that only freshly produced lactic acid is determined, the samples are washed (in three steps, each lasting 30 sec) in 1.5 ml PBS-solution. The production of lactic acid is evaluated by measuring the lactic acid amount at given points for 30 min. The determination points are: 0 min 15 min and 30 min. For each reading point a sample of 50 μl is taken out of each well. The lactic acid amount at each reading point is determined by using the enzyme assay described above. Lactic acid amount is calculated according to the lactic acid calibration curve.
(§4) In this experiment, the MCM human derived saliva biofilm system was used. The biofilms were grown for 26 hours in continuous presence of sucrose and different amino acids.

[2] = test system: human saliva derived microcosm biofilm; experiment: Mass of biofilm (wet biomass) grown in MCM human derived saliva biofilm system; type: cell-based; conditions: read-out: Biomass [% from control]; for activity at 2.7 %: Example 1, amino acid 2.7 wt. %
Protocol: as §1, §2, §3
The mass of biofilm was determined as follows: Filter papers are put into 1.5 ml-reaction tubes and were labelled and weighted. The biofilm, that was grown on the enamel disks is carefully wiped off with filter paper. The filter paper containing the wet biofilms were placed back into the respective reaction tube and re-weighted. The wet biomass is calculated from the difference in weight.
as §4

[3] = Homo sapiens, Example 1, amino acid 4.0 wt. %, 26 h biofilm growth, continuous presence of sucrose and amino acid, read-out: Lactic Acid Release after 30 min [% from control]
[4] = Example 1, amino acid 4.0 wt. %, 26 h biofilm growth
[5] = Homo sapiens, Example 1, amino acid 8.0 wt. %, 26 h biofilm growth, continuous presence of sucrose and amino acid, read-out: Lactic Acid Release after 30 min [% from control]
[6] = 26 h, Example 1, amino acid 8.0 wt. %, 26 h biofilm growth
[7] = Homo sapiens, Example 1, 26 h biofilm growth, continuous presence of sucrose and amino acid, read-out: Lactic Acid Release after 30 min [% from control]

With `C[C@H](N)C(=O)O` [Alanine, reference compound] the activity at 4 % [1, 3] was 99.7% and the activity at 4 % [2, 4] was 141%.
In the case of `N=C(N)NCCC[C@H](N)C(=O)O` [Arginine, reference compound], the “effectiveness for reducing the lactic-acid release of bacteria in a biofilm (in words)” value [1] is reported as “not effective” and the activity at 8 % ([2]; 26 h) is reported as 247%.
With `NC(=O)C[C@H](N)C(=O)O` [Asparagine, reference compound] the activity at 0.5 % ([1]; Homo sapiens, Example 1, amino acid 0.5 wt. %, 26 h biofilm growth, continuous presence of sucrose and amino acid, read-out: Lactic Acid Release after 30 min [% from control]) was 94.7% and the activity at 0.5 % ([2]; Example 1, amino acid 0.5 wt. %, 26 h biofilm growth) was 102%.
`N[C@@H](CC(=O)O)C(=O)O` [Aspartic acid, reference compound] was tested, and the activity at 0.1125 % ([1]; Homo sapiens, Example 1, amino acid 0.1125 wt. %, 26 h biofilm growth, continuous presence of sucrose and amino acid, read-out: Lactic Acid Release after 30 min [% from control]) was 101%, the “effectiveness for reducing the lactic-acid release of bacteria in a biofilm (in words)” value [1] was “not effective” and the activity at 0.1125 % ([2]; Example 1, amino acid 0.1125 wt. %, 26 h biofilm growth) was 82.1%.
`N[C@@H](CS)C(=O)O` [Cysteine, reference compound] showed an activity at 0.625 % ([1]; Homo sapiens, Example 1, amino acid 0.625 wt. %, 26 h biofilm growth, continuous presence of sucrose and amino acid, read-out: Lactic Acid Release after 30 min [% from control]) of 85.8% and an activity at 0.625 % ([2]; Example 1, amino acid 0.625 wt. %, 26 h biofilm growth) of 56.2%.
Compound `N[C@@H](CCC(=O)O)C(=O)O` [Glutamic acid, reference compound] has an activity at 0.215 % ([1]; Homo sapiens, Example 1, amino acid 0.215 wt. %, 26 h biofilm growth, continuous presence of sucrose and amino acid, read-out: Lactic Acid Release after 30 min [% from control]) of 90.4% and an activity at 0.215 % ([2]; Example 1, amino acid 0.215 wt. %, 26 h biofilm growth) of 80.2%.
`NCC(=O)O` [Glycine] was tested, and the activity at 0.5 % ([1]; Homo sapiens, 0.5 h, Example 2, glycine 0.5 wt. %, continuous presence with sucrose, read-out: Lactic Acid Release after 30 min [% from control]) was 97.5%, the activity at 1 % ([1]; Homo sapiens, 0.5 h, Example 2, glycine 1.0 wt. %, continuous presence with sucrose, read-out: Lactic Acid Release after 30 min [% from control]) was 51.6% and the activity at 2 % ([1]; Homo sapiens, 0.5 h, Example 2, glycine 2.0 wt. %, continuous presence with sucrose, read-out: Lactic Acid Release after 30 min [% from control]) was 32.3%. For the same compound, the activity at 4 % ([1]; Homo sapiens, 0.5 h, Example 2, glycine 4.0 wt. %, continuous presence with sucrose, read-out: Lactic Acid Release after 30 min [% from control]) was 1.6%, the activity at 8 % ([1]; Homo sapiens, 0.5 h, Example 2, glycine 8.0 wt. %, continuous presence with sucrose, read-out: Lactic Acid Release after 30 min [% from control]) was 5.6% and the activity at 8 % [1, 5] was 5.7%. The “effectiveness for reducing the lactic-acid release of bacteria in a biofilm (in words)” value [1] was “useful”, the activity at 8 % [2, 6] was 77.2% and the activity at 0.5 % ([2]; 26 h, Example 2, glycine 0.5 wt. %) was 143%. For the same compound, the activity at 1 % ([2]; 26 h, Example 2, glycine 1.0 wt. %) was 146%, the activity at 2 % ([2]; 26 h, Example 2, glycine 2.0 wt. %) was 96.7% and the activity at 4 % ([2]; 26 h, Example 2, glycine 4.0 wt. %) was 56.2%. The activity at 8 % ([2]; 26 h, Example 2, glycine 8.0 wt. %) was 42.2%.
In the case of `N[C@@H](Cc1c[nH]cn1)C(=O)O` [Histidine, reference compound], the activity at 3.8 % ([1]; Homo sapiens, Example 1, amino acid 3.8 wt. %, 26 h biofilm growth, continuous presence of sucrose and amino acid, read-out: Lactic Acid Release after 30 min [% from control]) is reported as 150%, the “effectiveness for reducing the lactic-acid release of bacteria in a biofilm (in words)” value [1] is reported as “not effective” and the activity at 3.8 % ([2]; Example 1, amino acid 3.8 wt. %, 26 h biofilm growth) is reported as 106%.
With `CC[C@H](C)[C@H](N)C(=O)O` [Isoleucine] the activity at 4 % [1, 3] was 21.9%, the “effectiveness for reducing the lactic-acid release of bacteria in a biofilm (in words)” value [1] was “useful” and the activity at 4 % [2, 4] was 104%.
`CC(C)C[C@H](N)C(=O)O` [Leucine] was tested, and the activity at 2.7 % [1, 7] was 36.7%, the “effectiveness for reducing the lactic-acid release of bacteria in a biofilm (in words)” value [1] was “useful” and the activity at 2.7 % ([2]; 26 h biofilm growth) was 85.9%.
In the case of `NCCCC[C@H](N)C(=O)O` [Lysine], the “effectiveness for reducing the lactic-acid release of bacteria in a biofilm (in words)” value [1] is reported as “useful” and the activity at 8 % ([2]; 26 h) is reported as 87.8%.
`CSCC[C@H](N)C(=O)O` [Methionine] was tested, and the activity at 4.8 % ([1]; Homo sapiens, Example 1, amino acid 4.8 wt. %, 26 h biofilm growth, continuous presence of sucrose and amino acid, read-out: Lactic Acid Release after 30 min [% from control]) was 26.9%, the “effectiveness for reducing the lactic-acid release of bacteria in a biofilm (in words)” value [1] was “useful” and the activity at 4.8 % ([2]; 26 h, Example 1, amino acid 4.8 wt. %, 26 h biofilm growth) was 84.9%.
Work on `N[C@@H](Cc1ccccc1)C(=O)O` [Phenylalanine] yielded an activity at 0.5 % ([1]; Homo sapiens, 0.5 h, Example 3, phenylalanine 0.5 wt. %, continuous presence with sucrose, read-out: Lactic Acid Release after 30 min [% from control]) of 45.9%, an activity at 1 % ([1]; Homo sapiens, 0.5 h, Example 3, phenylalanine 1.0 wt. %, continuous presence with sucrose, read-out: Lactic Acid Release after 30 min [% from control]) of 32.1% and an activity at 1.5 % ([1]; Homo sapiens, 0.5 h, Example 3, phenylalanine 1.5 wt. %, continuous presence with sucrose, read-out: Lactic Acid Release after 30 min [% from control]) of 16.7%. The activity at 2 % ([1]; Homo sapiens, 0.5 h, Example 3, phenylalanine 2.0 wt. %, continuous presence with sucrose, read-out: Lactic Acid Release after 30 min [% from control]) was 12.1%, the activity at 2.5 % ([1]; Homo sapiens, 0.5 h, Example 3, phenylalanine 2.5 wt. %, continuous presence with sucrose, read-out: Lactic Acid Release after 30 min [% from control]) was 3.5% and the activity at 2.7 % [1, 7] was 8.6%. For the same compound, the “effectiveness for reducing the lactic-acid release of bacteria in a biofilm (in words)” value [1] was “useful”, the activity at 0.5 % ([2]; 26 h, Example 3, phenylalanine 0.5 wt. %) was 181% and the activity at 1 % ([2]; 26 h, Example 3, phenylalanine 1.0 wt. %) was 124%. The activity at 1.5 % ([2]; 26 h, Example 3, phenylalanine 1.5 wt. %) was 92.7%, the activity at 2 % ([2]; 26 h, Example 3, phenylalanine 2.0 wt. %) was 96.5% and the activity at 2.5 % ([2]; 26 h, Example 3, phenylalanine 2.5 wt. %) was 66.9%. For the same compound, the activity at 2.7 % ([2]; 26 h biofilm growth) was 136%.
`O=C(O)[C@@H]1CCCN1` [Proline, reference compound] was tested, and the activity at 8 % [1, 5] was 74.7%, the “effectiveness for reducing the lactic-acid release of bacteria in a biofilm (in words)” value [1] was “not effective” and the activity at 8 % [2, 6] was 110%.
In the case of `N[C@@H](CO)C(=O)O` [Serine], the activity at 2.7 % [1, 7] is reported as 11.8%, the “effectiveness for reducing the lactic-acid release of bacteria in a biofilm (in words)” value [1] is reported as “useful” and the activity at 2.7 % ([2]; 26 h biofilm growth) is reported as 84.6%.
With `C[C@@H](O)[C@H](N)C(=O)O` [Threonine] the activity at 8 % [1, 5] was 54.6%, the “effectiveness for reducing the lactic-acid release of bacteria in a biofilm (in words)” value [1] was “useful” and the activity at 8 % ([2]; Example 1, amino acid 8.0 wt. %, 26 h biofilm growth) was 190%.
With `N[C@@H](Cc1c[nH]c2ccccc12)C(=O)O` [Tryptophan] the “effectiveness for reducing the lactic-acid release of bacteria in a biofilm (in words)” value [1] was “useful” and the activity at 0.25 % ([2]; 26 h) was 181%.
With `N[C@@H](Cc1ccc(O)cc1)C(=O)O` [Tyrosine, reference compound] the activity at 0.0095 % ([1]; Homo sapiens, Example 1, amino acid 0.0095 wt. %, 26 h biofilm growth, continuous presence of sucrose and amino acid, read-out: Lactic Acid Release after 30 min [% from control]) was 112%, the “effectiveness for reducing the lactic-acid release of bacteria in a biofilm (in words)” value [1] was “not effective” and the activity at 0.0095 % ([2]; Example 1, amino acid 0.0095 wt. %, 26 h biofilm growth) was 95.3%.
With `CC(C)[C@H](N)C(=O)O` [Valine] the activity at 5 % ([1]; Homo sapiens, Example 1, amino acid 5.0 wt. %, 26 h biofilm growth, continuous presence of sucrose and amino acid, read-out: Lactic Acid Release after 30 min [% from control]) was 42.1%, the “effectiveness for reducing the lactic-acid release of bacteria in a biofilm (in words)” value [1] was “useful” and the activity at 5 % ([2]; Example 1, amino acid 5.0 wt. %, 26 h biofilm growth) was 209%.
For `NC(=O)CC[C@H](N)C(=O)O` [glutamine, reference compound], the “effectiveness for reducing the lactic-acid release of bacteria in a biofilm (in words)” value [1] was “not effective”.
